Reference: PubChem BioAssay (NCI)
Where “and” joins values, the source holds several entries; their conditions need not be identical. Equal values may be shown once.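 Exposure lasted 48 hours, with cells grown in 96-well plates and compounds tested at five concentrations. Here, GI50 denotes the concentration required for 50% inhibition of growth. TGI marks complete inhibition of growth.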

Columns and labels:
Assay in all cases: NCI anticancer screen, dose series, 48 h
A549 NSCLC = tested on: A549 NSCLC
HOP-92 NSCLC = tested on: HOP-92 NSCLC
K-562 leukemia = tested on: K-562 leukemia
KM12 colon = tested on: KM12 colon
MDA-MB-231 breast = tested on: MDA-MB-231 breast
OVCAR-4 ovarian = tested on: OVCAR-4 ovarian
SF-268 CNS = tested on: SF-268 CNS
SK-MEL-2 melanoma = tested on: SK-MEL-2 melanoma
SW-620 colon = tested on: SW-620 colon
U251 CNS = tested on: U251 CNS

Compound | TGI (A549 NSCLC) | TGI (HOP-92 NSCLC) [µM] | TGI (K-562 leukemia) | TGI (KM12 colon) | TGI (MDA-MB-231 breast) [µM] | TGI (OVCAR-4 ovarian) [µM] | TGI (SF-268 CNS) | TGI (SK-MEL-2 melanoma) | TGI (SW-620 colon) | TGI (U251 CNS) | GI50 (A549 NSCLC) | GI50 (HOP-92 NSCLC) | GI50 (K-562 leukemia) | GI50 (KM12 colon) | GI50 (MDA-MB-231 breast) [µM] | GI50 (OVCAR-4 ovarian) | GI50 (SF-268 CNS) | GI50 (SK-MEL-2 melanoma) [µM] | GI50 (SW-620 colon) | GI50 (U251 CNS)
CC1(C)CC[C@]2(C(=O)O)CC[C@]3(C)C(=CC[C@@H]4[C@@]5(C)C[C@H](O)[C@H](O)[C@@](C)(C(=O)O)[C@@H]5CC[C@]43C)[C@@H]2C1 | > 100 µM | > 100 | > 100 µM | > 100 µM | > 100 | > 100 | > 100 µM | > 100 µM | > 100 µM | > 100 µM |  |  |  |  |  |  |  |  |  | 
O=C(O)C(C(=O)O)P(=S)(S)c1ccccc1 (stereo unspecified) | > 100 µM | > 100 | > 100 µM | > 100 µM | > 100 | > 100 | > 100 µM | > 100 µM | > 100 µM | > 100 µM |  |  |  |  |  |  |  |  |  | 
C=C1C(=O)O[C@H]2[C@H]1CC/C(C=Nc1c(N)cc(C(F)(F)F)cc1C(F)(F)F)=C\CC[C@@]1(C)O[C@@H]21 | 3.74 µM | 3.09 | 9.53 µM | 4.74 µM | 3.79 | 3.05 | 3.82 µM | 3.12 µM | 2.95 µM | 2.98 µM | 1.95 µM | 1.22 µM | 1.24 µM | 1.99 µM | 1.38 | 1.52 µM | 1.55 µM | 1.41 | 1.23 µM | 1.56 µM
Cc1nc(-c2nc(-c3ccc(OC(F)(F)F)cc3)no2)nn1Cc1cccc(N2CCC(S(C)(=O)=O)CC2)c1 | > 100 µM | > 89 | > 100 µM | > 100 µM | > 100 | > 90.6 | > 100 µM | > 86.5 µM | > 100 µM | > 100 µM | 4.62 µM | 28.9 µM | < 0.01 µM | > 52.6 µM | 17.6 | < 0.0137 µM | > 40.9 µM | > 35.1 | > 46.9 µM | > 39.3 µM
O=C1NC2C(=CC(O)C(O)C2O)c2cc3c(cc21)OCO3 (stereo unspecified) | 6.87 µM and 4.1 µM |  | 3.64 µM and 7.68 µM | 1.75 µM and 3.53 µM | 2.39 |  | 3.37 µM and 3.58 µM | 2.95 µM and 1.43 µM | 4.07 µM and 19.9 µM | 0.437 µM and 3.07 µM | 0.462 µM and 0.273 µM | 0.116 µM and 0.171 µM | 0.294 µM and 0.149 µM | 0.336 µM and 0.129 µM |  | 0.159 µM and 0.422 µM | 0.354 µM and 0.337 µM | 0.305 | 0.412 µM and 0.199 µM | 0.325 µM and 0.0688 µM
COc1ccc(Cn2cc3c(c2-c2ccccc2)CCc2cnoc2-3)cc1OC | > 100 µM | > 100 | > 100 µM | > 100 µM | > 100 | > 100 | > 100 µM | > 100 µM | > 100 µM | > 100 µM | 0.875 µM | 1.98 µM | 0.33 µM | 0.487 µM | 2.13 | 3.56 µM | 3.68 µM | 0.735 | 0.455 µM | 0.774 µM
O=[N+]([O-])c1ccc(C2CC(c3ccccc3)=Nc3ccccc3S2)cc1 (stereo unspecified) | > 100 µM | > 100 | > 100 µM | 97.5 µM | > 100 | > 100 | > 100 µM | > 100 µM | 11.1 µM | > 100 µM | > 100 µM | 24.5 µM | 3.87 µM | 6.13 µM | > 100 | 21.4 µM | > 100 µM | > 100 | 2.75 µM | 4.7 µM
O=C([O][Hg][CH2]C1OCCOC1[CH2][Hg][O]C(=O)c1ccccc1)c1ccccc1 (stereo unspecified) | 32.8 µM | 59.4 | 5.46 µM | 30.1 µM | 31.7 | 12.7 | 30.9 µM |  | 3 µM | 28.4 µM | 16.7 µM | 37.6 µM | 1.83 µM | 16.3 µM | 16.3 | 6.07 µM | 17.2 µM | 5.05 | 1.54 µM | 15.1 µM
CCc1nc(N)nc(N)c1-c1ccc2nnn(O)c2c1 | > 100 µM | > 100 | > 100 µM | > 100 µM | > 100 | > 100 | > 100 µM | > 100 µM | > 100 µM | > 100 µM |  |  |  |  |  |  |  |  |  | 
O=[N+]([O-])c1ccc(C2=Nn3c(nnc3-c3ccc(Cl)cc3)SC2)o1 | 48.6 µM | 8.31 | 4.89 µM | 27.6 µM | 10.1 | 6.66 | 30.2 µM | 27.1 µM | 5.85 µM | 31.5 µM |  |  |  |  |  |  |  |  |  | 
CCCCCCCCCCCCSC1=C(Cl)C(=O)C(OC)=C(OC)C1=O | 21.1 µM | 16.3 | > 40 µM | 11.6 µM | 10.4 | 26.6 | 16.1 µM | 14.8 µM | 17.5 µM | 12.2 µM | 4.39 µM | 2.67 µM | 0.205 µM | 1.85 µM | 1.86 | 3.81 µM | 3.08 µM | 4.36 | 0.63 µM | 1.57 µM
